From ChEMBL document CHEMBL1212748, “Patients with long-term oral carriage harbor high-persister mutants of Candida albicans” (2010)
Values after ≈ are worked out from the molar mass of the structure shown. Active and inactive are the calls of the source. No cut-off for these calls is given here.

Experiments:
Candida albicans [1] = test: Antimicrobial activity against Candida albicans high-persister mutants after 48 hrs by broth microdilution method; assay type: functional
Candida albicans [2] = test: Antimicrobial activity against Candida albicans high-persister mutants assessed as microbial death at 50 ug/ml after 48 hrs by broth microdilution method; assay type: functional, organism-based
Candida albicans [3] = test: Antimicrobial activity against Candida albicans CAF2-1 assessed as microbial death at 10 to 100 ug/ml after 48 hrs by broth microdilution method; assay type: functional, organism-based
Candida albicans [4] = test: Antimicrobial activity against Candida albicans low-persister mutants assessed as microbial death at 10 to 100 ug/ml after 48 hrs by broth microdilution method; assay type: functional, organism-based
Candida albicans [5] = test: Antimicrobial activity against Candida albicans high-persister mutants assessed as microbial death at 10 to 100 ug/ml after 48 hrs by broth microdilution method; assay type: functional, organism-based

Compound	MIC (Candida albicans [1])	Activity (Candida albicans [2])	Activity (Candida albicans [3])	Activity (Candida albicans [4])	Activity (Candida albicans [5])
N=C(NCCCCCCNC(=N)NC(=N)Nc1ccc(Cl)cc1)NC(=N)Nc1ccc(Cl)cc1 [CHLORHEXIDINE]	1.5 µg/mL (≈ 2.97 µM)	–	–	–	–
C[C@@H]1[C@H](O)[C@@H](C)/C=C/C=C/C=C/C=C/C=C/C=C/C=C/[C@H](O[C@@H]2O[C@H](C)[C@@H](O)[C@H](N)[C@@H]2O)C[C@@H]2O[C@](O)(C[C@@H](O)C[C@@H](O)[C@H](O)CC[C@@H](O)C[C@@H](O)CC(=O)O[C@H]1C)C[C@H](O)[C@H]2C(=O)O	–	inactive	Active	Active	Active
